Details: in NMP

For `O=C1OC(=O)[C@H]2[C@@H]1[C@@H]1C=C[C@H]2C1`, the solubility (mole fraction) (278.15 K) was 0.112, the solubility (mole fraction) (283.15 K) was 0.126 and the solubility (mole fraction) (288.15 K) was 0.14. For the same compound, the solubility (mole fraction) (293.15 K) was 0.156, the solubility (mole fraction) (298.15 K) was 0.172 and the solubility (mole fraction) (303.15 K) was 0.19. It also gave a solubility (mole fraction) (308.15 K) of 0.209, a solubility (mole fraction) (313.15 K) of 0.225 and a solubility (mole fraction) (318.15 K) of 0.245. It also gave a solubility (mole fraction) (323.15 K) of 0.265.
